Results: patent publication US20040131581A1, “Novel synergistic antimicrobial compositions and methods” (SureCide Technologies, LLC, priority 2001, published 2004)
“Also recorded” adds a separate entry of the source. Structures can show the parent of a compound that is named as a salt.

Legend:
[1] = test system: Salmonella choleraesuis (strain 10708); assay: Growth of Salmonella in nutrient broth containing treated rice-hull litter, visual examination; assay type: cell-based; settings: for Growth of Salmonella upon litter treated with one or more treatment composition components: Example 4, 7 g litter treated, Tables 5A, 5B, 5C; for Growth of Salmonella in the Presence of an Iodophore: Example 7, 7 g litter treated 30 minutes, 0.5 g litter, 24 hrs at 37° C.; for Growth of Salmonella upon litter treated with various concentrations of treatment composition: Example 6, litter of Example 4 re-tested, 24 hours at 37° C.
Method: . After exposing the litter to the antimicrobial composition, the preparations were filtered and the impregnated litter filtrates were dried and placed in separate culture tubes. Sterile nutrient broth (NB) was added to each tube and appropriate tubes were inoculated with 10^3 cfu/mL of Salmonella. All tubes were incubated overnight and examined visually. Visual interpretation results were confirmed by subculturing all culture tubes to plated media. […]
After soaking, the test preparations were removed from the litter material by vacuum filtration. The wet litter was spread on paper towels and allowed to dry between about 5 hours and overnight, followed by approximately 45 minutes exposure to desiccant.
Each of the treated litter samples was tested in triplicate for the ability to reduce or inhibit growth of an inoculated Salmonella culture. Three aliquots of litter (0.5 g each) from each of the four batches of treated litter (FeCl3/citrate, chitosan, FeCl3/citrate/chitosan, and water) were measured and placed in test tubes, to which 18 mL of microbial nutrient broth (Hardy Diagnostics, Santa Maria Calif.) was added. Control test tubes containing untreated litter (e) and no litter (f) were also prepared.
The tubes containing the treated litter were inoculated with 2 mL of a 10^4 cells/mL stock Salmonella solution (final concentration of 10^3 cells/mL). The inoculated tubes were incubated at 37° C. for 24 hours, then visually examined for positive cell growth. In addition, a sample from each test tube was subcultured onto nutrient and MacConkey agar.

[2] = pH of the litter-containing nutrient broth after incubation; assay type: physicochemical; settings: for pH of the growth media after incubation in the presence of litter: Example 4; for pH: Example 6, tube solution after 24 hours at 37° C.
Method: Two extra tubes were used for positive growth (cells only) and negative growth (no cells) growth controls. 18 ml of NB was added to each tube, and […]. The tubes were incubated for 24 hours at 37° C., after which the pH was measured and the number of tubes for each treatment showing signs of bacterial growth were counted.

Compound: CC(=O)O [Acetic Acid]
- Growth of Salmonella upon litter treated with one or more treatment composition components [1]: Growth
- Growth of Salmonella upon litter treated with one or more treatment composition components ([1]; listed as acetic acid): completely ineffective
- pH of the growth media after incubation in the presence of litter [2]: ~6

Compound: povidone-iodine complex [.25% PIC]
- Growth of Salmonella in the Presence of an Iodophore [1]: Growth

Compound: Cl [HCl]
- Growth of Salmonella upon litter treated with one or more treatment composition components [1]: completely ineffective; also recorded: Growth
- pH of the growth media after incubation in the presence of litter [2]: ~6

Compound: povidone-iodine complex [0.1% PIC]
- Growth of Salmonella in the Presence of an Iodophore [1]: ineffective

Compound: O=C(O)CC(O)(CC(=O)O)C(=O)O [50 mM citrate]
- Growth of Salmonella upon litter treated with one or more treatment composition components [1]: Growth
- Growth of Salmonella upon litter treated with various concentrations of treatment composition [1]: Growth
- pH [2]: pH 6.4

Compound: [Cl][Fe]([Cl])[Cl] [50 mM Fe, FeCl3]
- Growth of Salmonella upon litter treated with one or more treatment composition components [1]: Growth
- Growth of Salmonella upon litter treated with various concentrations of treatment composition [1]: Growth
- pH [2]: pH 6.3
